From a melting point compilation (Tetko et al.)

Details: a range is the spread between reports

SMILES | melting point [°C]
O=C(O)CCCCBr | 39 to 40
Cc1cc(N)c2ccccc2n1 | 164 to 169
Oc1ccccc1C=Nc1ccccc1 | 47.5 to 51
OCCCCCCCCCCCCO | 81.3 to 83
Cc1c(C)c(C)c(CCl)c(C)c1C | 82 to 83
BrCC(Br)Br | -29.3 to -29
COc1ccc(C(C)=O)cc1OC | 49 to 51
C=CCCl | -135 to -134
O=C(O)C12CC3CC(CC(C3)C1)C2 | 174 to 175
BrCc1ccc(Br)cc1 | 62 to 63
Fc1ccc(Cl)cc1 | -26.8 to -22
CCCCCC#N | -80.3 to -80
CC(C)c1ccc(CO)cc1 | 27 to 28
c1ccc(C(c2ccccc2)(c2ccccc2)c2ccccc2)cc1 | 282 to 283
Cc1cc(C)cc(N)c1 | 9.8 to 10
CC(C)(N)CO | 25.5 to 30
Cc1c(N)cccc1Cl | 1 to 2
NC(=O)c1ccc(-c2ccccc2)cc1 | 223 to 228
CN1C(=O)CCC1=O | 66 to 71
C=CC(=O)NC(C)(C)C | 128 to 129
CC(C)(Cl)Cl | -34 to -33.8
Cc1cc(C)c(CC(=O)O)c(C)c1 | 168 to 169

SMILES | melting point [°C]
O=C(Oc1ccccc1)c1ccccc1C(=O)Oc1ccccc1 | 73 to 75
CCOS(=O)(=O)c1ccc(C)cc1 | 32 to 34.5
CC(=O)c1ccc2ccccc2c1O | 99 to 101
CCCCCc1ccc(O)cc1 | 23 to 24
Oc1ccc(Br)cc1Cl | 49 to 50.5
O=CC=Cc1ccco1 | 51 to 54
OCc1ccc(Cl)c(Cl)c1 | 36 to 38
CC(=O)c1ccc(O)cc1 | 107 to 110
O=C(O)Cc1ccccc1 | 76 to 79
N#CC1=C(C#N)C(=O)C(Cl)=C(Cl)C1=O | 214 to 215
CCCCCCCCI | -46 to -44
C=CCC1(C(C)C)C(=O)NC(=O)NC1=O | 141 to 143
Clc1cccc(Cl)c1 | -25 to -24.8
O=C(O)c1ccccc1-c1ccccc1C(=O)O | 229 to 234
Cc1ccc([N+](=O)[O-])c(F)c1 | 53 to 53.2
ClCC1CO1 (configuration not stated) | -57.2 to -57
Brc1ccc(Oc2ccccc2)cc1 | 18 to 18.7
NC(=O)c1cccs1 | 181 to 182
CCOC(=O)Cc1c[nH]c2ccccc12 | 43 to 44.5
NC(=O)c1c(Cl)cccc1Cl | 198 to 199
FC(F)(F)C(F)(F)F | -101 to -100
Nc1cc(Cl)c(Cl)cc1Cl | 94 to 96.5

SMILES | melting point [°C]
Cc1cc(O)c(C(C)C)cc1Cl | 59 to 63
COC(F)(F)C(Cl)Cl | -36 to -35
CCc1ccccc1Br | -68 to -67.9
Oc1c(F)c(F)c(F)c(F)c1F | 32.8 to 35
Oc1c(I)cc(I)cc1I | 158 to 160
O=C(O)CCCCCCCBr | 38.5 to 39
Cc1ccc2c(c1N)C(=O)c1ccccc1C2=O | 205 to 206
COP(=O)(OC)OC(=CCl)c1cc(Cl)c(Cl)cc1Cl | 96 to 97.5
CCC(=O)c1ccc(C)cc1 | 7 to 7.2
CC#N | -48 to -43.8
CC(C)(C)CO | 50 to 54
CC=C1CCCC1 | -130
O=C(Cl)c1ccc(Br)cc1 | 40 to 42
NC(=S)Nc1ccccc1 | 149 to 154
CN(C)c1ccc(C=Nc2ccccc2)cc1 | 96 to 100
CC(C)(C)OOC(=O)c1ccccc1 | 7 to 8
COc1cc(Cl)c(Cl)c(Cl)c1Cl | 84 to 88
CC(C)C(O)C(C)(C)CO (configuration not stated) | 51.5 to 52
ClCC(Cl)CCl | -15 to -14
CCCCCCCCCC#N | -17.9 to -15
CCCCCC(C)CC (configuration not stated) | -108
CC(=O)c1ccc(O)cc1O | 144 to 146

SMILES | melting point [°C]
Clc1ccc(Cl)c(Br)c1 | 34 to 35
NCC(O)c1ccccc1 (configuration not stated) | 56.5 to 57
Nc1ccc([N+](=O)[O-])cc1[N+](=O)[O-] | 176 to 180
CC(C)(C)C1=CC(=O)C(=O)C(C(C)(C)C)=C1 | 114 to 115
O=C(C(=O)c1ccccc1)c1ccccc1 | 94.5 to 95
N#Cc1ccc(N)cc1 | 84 to 85
CCCN(CCC)CCC | -94 to -93
CC(=O)N1CCOCC1 | 10 to 14.5
Cc1ccc(C(N)=O)cc1 | 159 to 163
CON(C)C(=O)Nc1ccc(Cl)c(Cl)c1 | 93 to 93.5
N#Cc1ccncc1 | 76 to 79
O=C(O)c1cc([N+](=O)[O-])cc([N+](=O)[O-])c1O | 170 to 171
CCN(CC)CC | -115
O=[N+]([O-])c1cccc(CO)c1 | 30.5 to 32
O=C1c2ccccc2-c2ccccc21 | 83 to 84
Cc1cc(Cl)nc(Cl)c1C#N | 110 to 113
Cc1ccc(N(CC2=NCCN2)c2cccc(O)c2)cc1 | 174 to 175
O=C1CC(=O)NC(=S)N1 | 234 to 235
C=CC(N)=O | 84 to 84.5
NS(=O)(=O)c1ccc(Cl)cc1 | 145 to 146
C/C=C/C=O | -76.5 to -76
Cn1c(=O)c2c(ncn2C)n(C)c1=O | 235 to 238

SMILES | melting point [°C]
C=C1C2CCC(C2)C1(C)C (configuration not stated) | 50 to 52
COP(=S)(OC)SCn1nnc2ccccc2c1=O | 72 to 73
ON=C1CCCC1 | 56 to 57.8
CC(C)(O)CCC(C)(C)O | 89 to 92
Cc1ccc2ccccc2n1 | -2 to -1.5
Cc1cc(C2(c3ccc(O)c(C)c3)OC(=O)c3ccccc32)ccc1O | 223 to 224
O=C(O)Cc1ccc(Cl)cc1 | 103 to 106
O=C(O)c1cccc(C(F)(F)F)c1 | 105 to 106
O=C1CCC(=O)O1 | 119 to 120
c1ccncc1 | -42 to -41.6
Oc1ccc2[nH]ccc2c1 | 108 to 109
CCCCCCCCC#CCCCCCCCC(=O)O | 45 to 48
Fc1c(F)c(F)c(-c2c(F)c(F)c(F)c(F)c2F)c(F)c1F | 67 to 68
Cc1ccccc1-c1ccccc1 | -0.2 to 0
CC(=O)/C=C/c1ccccc1 | 40 to 42
CCOc1ccc(N)cc1 | 2.4 to 4
CC(=O)Nc1ccccc1C(=O)O | 184 to 186
Nc1c(Cl)ccc(Cl)c1C(=O)O | 152 to 155
Nc1c(Cl)cc([N+](=O)[O-])cc1Cl | 189 to 191
S=C=Nc1ccc(Br)cc1 | 58 to 60.5
c1ccc2c(c1)Cc1ccccc1C2 | 108 to 111

Next, values leading:

melting point [°C] | SMILES
1 to 4 | COC(=O)OC
-116 | CCCCS
80 to 81 | OCc1ccccc1Br
62.5 to 65.5 | Cc1cc(C)cc(O)c1
200 to 201 | COc1cc(Cc2cnc(N)nc2N)cc(OC)c1OC
72 to 74 | O=[N+]([O-])c1ccccc1CO
12 to 12.5 | Cc1ccc(CN)cc1
21.5 to 25 | C[C@H](O)CN
142 to 143 | O=C1Cc2ccccc2C(=O)O1
31.5 to 34 | O=Cc1ccc(CO)o1
-74.4 to -74 | CC1(C)CC=CCC1
164 to 168 | c1ccc2c(c1)-c1cccc3c1c-2cc1ccccc13
28 to 30 | c1ccc2nccnc2c1
39 to 40 | c1ccc(COc2ccccc2)cc1
-121 | CCCCC(C)(C)C
216 to 217 | Oc1ccc2ccccc2c1-c1c(O)ccc2ccccc12
119 to 121 | c1ccc(P(CP(c2ccccc2)c2ccccc2)c2ccccc2)cc1
66 to 66.5 | CCOc1ccc(O)cc1
54 to 56 | O=[N+]([O-])c1cccc(Br)c1
70 to 74 | CCN(CC)c1ccc2c(C)cc(=O)oc2c1

melting point [°C] | SMILES
10.5 to 11 | BrCC(Br)(Br)CBr
96 to 97 | CCNc1ccc([N+](=O)[O-])cc1
24 to 27 | COc1ccc(C)cc1OC
196 | CN(C)CCC=C1c2ccccc2CCc2ccccc21
-54 to -53.7 | CCc1cc(C)ccc1C
16 to 18 | C=CCCCCCCCCCCCCCCCC
-62 to -60 | CCCCNCCCC
-114 | CCO
100 to 101 | CCOC(=O)c1ccc([N+](=O)[O-])o1
-32 to -31.6 | CCCCCCC(C)O (configuration not stated)
190 | c1ccc(-c2cc3ccccc3[nH]2)cc1
-10 to -9 | C=CCc1ccc(O)c(OC)c1
164 to 166 | O=C1OC(=O)C2C3C=CC(C3)C12 (configuration not stated)
86 to 88 | Clc1cccc(Cl)n1
-63.1 to -63 | CCc1ccccn1
70 to 72.5 | CC1=CC(=O)C=C(C)C1=O
110 to 111 | CC(=O)Nc1ccccc1C
1 to 2 | Cc1ccc(C(C)C)cc1O
218 to 220 | c1ccc(-c2ccnc3c2ccc2c(-c4ccccc4)ccnc23)cc1
-97 to -96.5 | CC[Si](Cl)(Cl)CC

melting point [°C] | SMILES
37.5 to 38 | CC1(C(=O)O)CCCCC1
348 | O=c1[nH]c(=O)c2nccnc2[nH]1
38 to 38.5 | COc1ccc(C(C)=O)cc1
176 to 177 | NC(=O)c1ccccc1[N+](=O)[O-]
144 to 146 | O=C(c1ccccc1)c1ccc(O)cc1O
181 to 182 | O=C(O)c1ccc(CO)cc1
255 to 259 | CC12CCC3c4ccc(O)cc4CCC3C1CCC2=O (configuration not stated)
118 to 119 | O=C(n1ccnc1)n1ccnc1
-90.4 to -90 | CC1=C(C)CCC1
115 to 118 | O=C(c1ccccc1)c1ccc(C(F)(F)F)cc1
-94 to -93.8 | C1CCCC1
-69 to -68.5 | C=Cc1ccccc1C
26.8 to 28 | c1ccc(Oc2ccccc2)cc1
92 to 94 | CCOC(=O)c1cc([N+](=O)[O-])cc([N+](=O)[O-])c1
35 to 38.5 | NCCCCCO
54 to 54.5 | Cc1cc(C)c(C)c(C)c1C
71 to 73 | OCc1cccc(O)c1
146 to 147 | COc1cc(Cl)ccc1C(=O)O
